Test results as given in patent US20240217983A1, “GPR119 AGONISTS” (Kallyope, Inc., priority 2021, published 2024).

Target: T1, human GPR119 (hGPR119) (Homo sapiens, UniProt Q8TDV5)
T1 construct: expressed in transfected cells
T1 sequence (Q8TDV5 1-335): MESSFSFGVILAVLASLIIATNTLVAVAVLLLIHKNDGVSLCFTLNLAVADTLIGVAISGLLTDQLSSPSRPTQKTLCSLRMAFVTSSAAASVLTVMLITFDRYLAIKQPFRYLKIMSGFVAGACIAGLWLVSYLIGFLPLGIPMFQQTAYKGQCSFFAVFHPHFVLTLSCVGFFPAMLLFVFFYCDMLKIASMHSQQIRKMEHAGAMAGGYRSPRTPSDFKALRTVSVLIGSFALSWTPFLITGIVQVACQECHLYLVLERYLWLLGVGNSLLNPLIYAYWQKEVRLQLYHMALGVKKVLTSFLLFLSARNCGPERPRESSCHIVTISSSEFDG
Assay: cAMP accumulation assay (Cisbio cAMP Gs dynamic HTRF kit) in CHO-K1 cells stably expressing human GPR119
Assay type: cell-based
Conditions: 4-parameter fit; for Emax: 1 h, % activity normalized to Max and Min controls; for EC50: 60 minutes at 37° C.
Outline: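 CHO-K1 cells stably expressing hGPR119, used as assay-ready frozen stocks at ~10,000 cells/well, exposed to compound dose-response in stimulation buffer with Tween 80 for 60 min at 37° C. cAMP read by HTRF (665/620 nm ratio), normalised to Max/Min controls; EC50 and Max activity from 4-parameter fit.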

Emax | EC50 | Compound
100 to 130% | 100 to 1000 nM | O=C(Cc1ccc(OCCC2CC3(CCN(c4ncc(Cl)cn4)CC3)C2)cc1F)N1CCN(C[C@H](O)[C@@H](O)[C@H](O)[C@H](O)CO)CC1 [Example 110, 2-(4-(2-(7-(5-chloropyrimidin-2-yl)-7-azaspiro[3.5]nonan-2-yl)ethoxy)-2-fluorophenyl)-1-(4-((2S,3R,4R,5R)-2,3,4,5,6-pentahydroxyhexyl)piperazin-1-yl)ethan-1-one]
100 to 130% | ≤ 100 nM | O=C(Cc1ccc(OCCCC2CCN(c3ncc(Cl)cn3)CC2)cc1F)N1C[C@@H]2C[C@H]1CN2C[C@H](O)[C@@H](O)[C@H](O)[C@H](O)CO [Example 55, 2-(4-(3-(1-(5-chloropyrimidin-2-yl)piperidin-4-yl)propoxy)-2-fluorophenyl)-1-((1S,4S)-5-((2S,3R,4R,5R)-2,3,4,5,6-pentahydroxyhexyl)-2,5-diazabicyclo[2.2.1]heptan-2-yl)ethan-1-one]

Further lines, the compound ahead of its results:

Compound | Emax | EC50
O=C(CCCCS(=O)(=O)O)N1CCN(C(=O)Cc2ccc(OCCCC3CCN(c4ncc(Cl)cn4)CC3)cc2F)C2CC21 (stereo not drawn) [Example 17, 5-(5-(2-(4-(3-(1-(5-chloropyrimidin-2-yl)piperidin-4-yl)propoxy)-2-fluorophenyl)acetyl)-2,5-diazabicyclo[4.1.0]heptan-2-yl)-5-oxopentane-1-sulfonic acid] | 100 to 130% | 100 to 1000 nM
O=C(Cc1ccc(OCCCC2CCN(c3ncc(Cl)cn3)CC2)cc1F)N1C[C@@H]2C[C@H]1CN2C[C@H](O)[C@H](O)[C@H](O)CO [Example 54, 2-(4-(3-(1-(5-chloropyrimidin-2-yl)piperidin-4-yl)propoxy)-2-fluorophenyl)-1-((1S,4S)-5-((2S,3S,4R)-2,3,4,5-tetrahydroxypentyl)-2,5-diazabicyclo[2.2.1]heptan-2-yl)ethan-1-one] | 100 to 130% | ≤ 100 nM
O=C(CCCCS(=O)(=O)O)N1CCOC2(CCN(C(=O)Cc3ccc(OCCCC4CCN(c5ncc(Cl)cn5)CC4)cc3F)C2)C1 (stereo not drawn) [Example 24, 5-(2-(2-(4-(3-(1-(5-chloropyrimidin-2-yl)piperidin-4-yl)propoxy)-2-fluorophenyl)acetyl)-6-oxa-2,9-diazaspiro[4.5]decan-9-yl)-5-oxopentane-1-sulfonic acid] | 100 to 130% | ≤ 100 nM
O=C(Cc1ccc(OCCCC2CCN(c3ncc(Cl)cn3)CC2)cc1F)N1C[C@H]2C[C@@H]1CN2C[C@H](O)[C@@H](O)[C@H](O)[C@H](O)CO [Example 47, 2-(4-(3-(1-(5-chloropyrimidin-2-yl)piperidin-4-yl)propoxy)-2-fluorophenyl)-1-((1R,4R)-5-((2S,3R,4R,5R)-2,3,4,5,6-pentahydroxyhexyl)-2,5-diazabicyclo[2.2.1]heptan-2-yl)ethan-1-one] | 100 to 130% | ≤ 100 nM
